Assay results published in patent US20130040935A1, “CYCLIC KETO-ENOLS FOR THERAPY” (BAYER INTELLECTUAL PROPERTY GMBH, priority 2010, published 2013).
Like-named read-outs stand apart in the source and are kept apart here.

Key:
[1] = biological target: human ACC2 (acetyl-coenzyme A carboxylase 2) (Homo sapiens, UniProt O00763); experiment: Human ACC2 enzyme assay, Assay B2 (ADP-Glo);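 also: human ACC2 activity read as ADP product, detected by luciferase glow luminescence after residual ATP removal, enzyme near 2 ng/µl in linear range, detection steps at 22 °C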
Description: The hACC2-inhibitory action of the substances of the present invention was measured in the hACC2 assay described in the paragraphs below.
Essentially, the enzyme activity is measured by quantifying the adenosine diphosphate (ADP) formed as a byproduct of the enzyme reactions using the ADP-Glo™ detection system from Promega. In this test, initially the adenosine triphosphate (ATP) not consumed in the enzyme reaction is converted quantitatively with an adenylate cyclase (“ADP-GLO reagent”) into cAMP, the adenylate cyclase is then stopped and (“kinase detection reagent”) the ADP formed is subsequently converted into ATP, which is converted in a luciferase-based reaction into a glow luminescence signal.
The concentration of the hACC2 was adapted to the respective activity of the enzyme and adjusted such that the assay operated in the linear range. Typical concentrations were in the range of 2 ng/μl. […] The amount of light emitted was taken as a measure for the amount of ADP formed and thus for the enzyme activity of the hACC2.

A431 = experiment: Cell proliferation assay (CellTiter-Glo, 96 h), A431; format: cell-based; details: Homo sapiens, A-431; 96-hour incubation
Description: (§1) In accordance with the invention, the substances were tested in cell-based assays for the ability of the substances of inhibiting tumour cell proliferation after a 96-hour incubation with the substance. Cell viability was tested using the CellTiter-Glo® luminescent cell viability assay (Promega). The cells were sown at a density of 2000-5000 cells/well (depending on the cell line) in 100 μl growth medium on 96-well microtitre plates. For each cell line examined, cells were sown on a separate plate to determine the luminescence at t=0 hours and t=96 hours. After overnight incubation at 37° C., the luminescence values for the t=0 samples were determined. The dose plates for the t=96 hours points in time were treated with substances diluted with growth medium. The cells were then incubated at 37° C. for 96 hours, and the luminescence values for the t=96 hours sample were then determined. For data analysis, the t=0 values were subtracted from the t=96 hour values for treated and untreated samples. The differences in luminescence in percent between substance-treated samples and control values were used to determine the growth inhibition in percent.
(§2) The substances were tested in the following cell lines which represent the stated indications in an exemplary manner: […]

MDA-MB-468 = experiment: Cell proliferation assay (CellTiter-Glo, 96 h), MDA-MB-468; format: cell-based; details: Homo sapiens, MDA-MB-468; 96-hour incubation
Description: as §1, §2

[2] = biological target: T1, human ACC1 (acetyl-coenzyme A carboxylase alpha transcript variant 1) (Homo sapiens, UniProt Q13085); experiment: Human ACC1 enzyme assay, Assay B1 (ADP-Glo); format: biochemical
T1 construct: FLAG (C); made in house; host or cells: baculovirus-infected insect cells (Hi5)

MDA-MB-436 = experiment: Cell proliferation assay (CellTiter-Glo, 96 h), MDA-MB-436; format: cell-based; details: Homo sapiens, MDA-MB-436; 96-hour incubation
Description: as §1, §2

Miapaca = experiment: Cell proliferation assay (CellTiter-Glo, 96 h), Miapaca; format: cell-based; details: Homo sapiens, MIA PaCa-2; 96-hour incubation
Description: as §1, §2

MCF7 = experiment: Cell proliferation assay (CellTiter-Glo, 96 h), MCF7; format: cell-based; details: Homo sapiens, MCF7; Table 7; 96-hour incubation
Outline: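 Tumour cells are plated overnight, a baseline luminescence plate is read, and parallel plates receive compound for 96 hours at 37° C. before CellTiter-Glo measurement. Percent inhibition uses baseline-subtracted values relative to untreated cells.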

[3] = tested on: malonyl-CoA in a tumour (human MCF-7 breast cancer cells); experiment: Mode-of-action experiment: intratumour malonyl-CoA in MCF-7 tumours after oral administration; format: in vivo, female nude mice (NMRI-nude (nu/nu)); details: Mus musculus, MCF7, po; after 7 h, 10 mg/kg, vs Vehicle
Description: Mode-of-Action Experiment
Prior to the determination of the activity in the MCF-7 model, some of the test substances were examined in a “mode of action” experiment. The principle of this experiment is that short-term application of a test substance capable of inhibiting ACC1 and/or ACC2 in a living organism after oral administration reduces malonyl-CoA in a tumour. To this end, in the experiment 2 million human MCF-7 breast cancer cells were injected subcutaneously into female nude mice (NMRI-nude (nu/nu) mice, Taconic M&B A/S, 1 day beforehand administration of a pellet for the release of oestrogen over a period of at least 60 days). Once the tumour extended to an area of about 60-70 mm^2, the test substance was administered orally over a period of 1-3 days, and at defined points in time the intratumour content of malonyl-CoA was then determined and compared to the vehicle control. The method is described in Anal Chem 2008 Aug. 1; 80(15):5736-42. Epub 2008 Jul. 9.).

HCC-1937 = experiment: Cell proliferation assay (CellTiter-Glo, 96 h), HCC-1937; format: cell-based; details: Homo sapiens, HCC1937; 96-hour incubation
Description: as §1, §2

786 O = experiment: Cell proliferation assay (CellTiter-Glo, 96 h), 786 O; format: cell-based; details: Homo sapiens, 786-0; 96-hour incubation
Description: as §1, §2

Du145 = experiment: Cell proliferation assay (CellTiter-Glo, 96 h), Du145; format: cell-based; details: Homo sapiens, DU-145; 96-hour incubation
Description: as §1, §2

ECC1 = experiment: Cell proliferation assay (CellTiter-Glo, 96 h), ECC1; format: cell-based; details: Homo sapiens, ECC-1; 96-hour incubation
Description: as §1, §2

PC3 = experiment: Cell proliferation assay (CellTiter-Glo, 96 h), PC3; format: cell-based; details: Homo sapiens, PC-3; 96-hour incubation
Description: as §1, §2

PLC/PRF5 = experiment: Cell proliferation assay (CellTiter-Glo, 96 h), PLC/PRF5; format: cell-based; details: Homo sapiens, PLC-PRF-5; 96-hour incubation
Description: as §1, §2

KM12 = experiment: Cell proliferation assay (CellTiter-Glo, 96 h), KM12; format: cell-based; details: Homo sapiens, 96-hour incubation
Description: as §1, §2

NCI-H2135 = experiment: Cell proliferation assay (CellTiter-Glo, 96 h), NCI-H2135; format: cell-based; details: 96-hour incubation; read-out: NCLH 2135 IC50
Description: as §1, §2

DLD1 = experiment: Cell proliferation assay (CellTiter-Glo, 96 h), DLD1; format: cell-based; details: Homo sapiens, DLD-1; 96-hour incubation
Description: as §1, §2

MDA-MB-435 = experiment: Cell proliferation assay (CellTiter-Glo, 96 h), MDA-MB-435; format: cell-based; details: Homo sapiens, 96-hour incubation
Description: as §1, §2

Chain of human ACC2 (acetyl-coenzyme A carboxylase 2) (O00763 27-2458 limits assumed): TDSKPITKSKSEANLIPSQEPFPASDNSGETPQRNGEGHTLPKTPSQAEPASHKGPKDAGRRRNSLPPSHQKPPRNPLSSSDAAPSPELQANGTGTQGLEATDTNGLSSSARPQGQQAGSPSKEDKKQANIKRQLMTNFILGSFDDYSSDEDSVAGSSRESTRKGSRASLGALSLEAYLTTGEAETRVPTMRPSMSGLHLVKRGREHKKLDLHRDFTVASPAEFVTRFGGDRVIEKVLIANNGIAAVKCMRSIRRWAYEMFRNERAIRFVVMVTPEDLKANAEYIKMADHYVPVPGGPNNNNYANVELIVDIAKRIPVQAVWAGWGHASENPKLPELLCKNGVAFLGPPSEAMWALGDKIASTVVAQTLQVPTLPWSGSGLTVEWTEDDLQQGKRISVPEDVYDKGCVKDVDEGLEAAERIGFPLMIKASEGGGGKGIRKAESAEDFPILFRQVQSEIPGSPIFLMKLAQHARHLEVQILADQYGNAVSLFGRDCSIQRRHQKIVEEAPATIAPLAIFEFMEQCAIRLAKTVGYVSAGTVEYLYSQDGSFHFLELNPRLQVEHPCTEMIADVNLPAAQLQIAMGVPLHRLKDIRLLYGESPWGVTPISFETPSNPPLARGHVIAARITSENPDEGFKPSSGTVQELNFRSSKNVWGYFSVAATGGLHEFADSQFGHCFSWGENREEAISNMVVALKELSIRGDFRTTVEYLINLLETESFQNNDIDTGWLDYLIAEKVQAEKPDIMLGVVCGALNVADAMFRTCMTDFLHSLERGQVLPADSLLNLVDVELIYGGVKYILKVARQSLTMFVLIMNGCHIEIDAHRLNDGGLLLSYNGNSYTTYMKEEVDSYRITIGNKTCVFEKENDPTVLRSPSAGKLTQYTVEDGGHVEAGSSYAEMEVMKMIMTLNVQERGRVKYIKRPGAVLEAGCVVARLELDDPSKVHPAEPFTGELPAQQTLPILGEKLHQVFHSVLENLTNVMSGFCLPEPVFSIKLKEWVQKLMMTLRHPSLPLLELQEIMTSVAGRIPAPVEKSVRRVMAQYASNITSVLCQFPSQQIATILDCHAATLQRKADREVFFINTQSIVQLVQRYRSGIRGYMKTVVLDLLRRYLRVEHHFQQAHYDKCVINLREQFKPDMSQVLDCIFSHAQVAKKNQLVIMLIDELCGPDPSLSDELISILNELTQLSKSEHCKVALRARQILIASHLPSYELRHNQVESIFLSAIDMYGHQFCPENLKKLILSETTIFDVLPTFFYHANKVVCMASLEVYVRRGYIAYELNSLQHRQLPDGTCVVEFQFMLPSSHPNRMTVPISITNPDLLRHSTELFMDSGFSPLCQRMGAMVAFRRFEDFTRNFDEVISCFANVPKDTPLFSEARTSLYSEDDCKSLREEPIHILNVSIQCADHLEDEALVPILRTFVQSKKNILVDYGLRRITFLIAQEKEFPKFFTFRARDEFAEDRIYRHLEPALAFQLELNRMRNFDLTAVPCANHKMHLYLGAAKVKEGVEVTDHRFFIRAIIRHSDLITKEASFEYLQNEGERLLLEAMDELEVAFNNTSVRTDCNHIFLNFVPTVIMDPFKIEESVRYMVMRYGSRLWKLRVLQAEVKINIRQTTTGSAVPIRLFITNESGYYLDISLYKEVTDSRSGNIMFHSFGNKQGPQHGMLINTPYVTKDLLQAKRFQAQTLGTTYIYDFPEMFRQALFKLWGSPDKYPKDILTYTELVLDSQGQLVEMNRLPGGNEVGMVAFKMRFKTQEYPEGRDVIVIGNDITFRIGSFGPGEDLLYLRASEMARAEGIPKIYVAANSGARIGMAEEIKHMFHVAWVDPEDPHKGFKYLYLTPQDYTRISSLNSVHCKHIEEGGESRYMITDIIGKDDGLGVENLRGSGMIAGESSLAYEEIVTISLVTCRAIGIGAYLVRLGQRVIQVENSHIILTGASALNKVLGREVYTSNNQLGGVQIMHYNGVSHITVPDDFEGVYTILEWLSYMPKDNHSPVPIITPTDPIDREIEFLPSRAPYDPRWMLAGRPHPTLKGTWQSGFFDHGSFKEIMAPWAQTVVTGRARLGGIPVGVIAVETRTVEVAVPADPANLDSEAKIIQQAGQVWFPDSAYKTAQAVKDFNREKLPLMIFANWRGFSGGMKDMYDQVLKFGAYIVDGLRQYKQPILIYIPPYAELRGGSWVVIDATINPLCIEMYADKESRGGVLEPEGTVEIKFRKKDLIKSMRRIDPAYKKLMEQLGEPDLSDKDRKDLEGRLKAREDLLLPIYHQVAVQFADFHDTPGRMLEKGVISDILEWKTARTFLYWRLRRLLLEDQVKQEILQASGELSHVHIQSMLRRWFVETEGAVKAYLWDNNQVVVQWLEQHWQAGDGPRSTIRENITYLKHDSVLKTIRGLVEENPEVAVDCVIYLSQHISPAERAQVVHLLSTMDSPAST

IC50 (A431) [nM]	IC50 (MDA-MB-468) [nM]	IC50 ([2]; Assay B1, read-out: ACC 1 (=B1) IC50) [nM]	IC50 (MDA-MB-436) [nM]	IC50 (Miapaca) [nM]	IC50 (MCF7) [nM]	IC50 (HCC-1937) [nM]	Compound	IC50 [1] [nM]	inhibition in vivo at 10 mg/kg [3] [%]	IC50 (786 O) [nM]	IC50 (Du145) [nM]	IC50 (ECC1) [nM]	IC50 (PC3) [nM]	IC50 (PLC/PRF5) [nM]	IC50 [2] [nM]	IC50 (KM12) [nM]	IC50 (NCI-H2135) [nM]	IC50 (DLD1) [nM]	IC50 (MDA-MB-435) [nM]
214	138	202	84	316	30	171	COCC1CCC2(CC1)NC(=O)C(c1cc(-c3ccc(Cl)cc3)ccc1C)=C2O (stereo not drawn) [1-56, 3-(4′-chloro-4-methylbiphenyl-3-yl)-4-hydroxy-8-(methoxymethyl)-1-azaspiro[4.5]dec-3-en-2-one]	672	84	–	–	–	–	–	–	–	–	–	–
–	–	–	–	–	–	–	Cc1ccc(-c2ccc(Cl)cc2)cc1C1=C(O)C2(CCCCC2)NC1=O [1-77, 3-(4′-chloro-4-methylbiphenyl-3-yl)-4-hydroxy-1-azaspiro[4.5]dec-3-en-2-one]	2590	96	404	51	257	31	3890	278	80	33	875	140
